Here are results for 79 molecules from the METLIN SMRT retention time set (Domingo-Almenara et al. 2019).

SMILES strings stand for the structures.

The nature of the series: gradient 5% acetonitrile 3 min, to 50% in 2 min, to 85% in 15 min, held 3 min, 100 µL/min. To be noted: column: Zorbax Extend-C18 2.1 x 50 mm; eluents: water / acetonitrile, 0.1% formic acid. The method, boiled down:
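Pure standards were analyzed in mixtures of ~100 molecules using HPLC coupled to a quadrupole time-of-flight mass spectrometer, in both positive and negative ionization mode. Separation used a Zorbax Extend-C18 column (2.1 × 50 mm, 1.8 μm) at 100 μL/min, with water and acetonitrile each containing 0.1% formic acid. Dead and dwell volumes were 40 μL and 900 μL, and data were collected over 3 months. Retention time was read from computationally picked adduct peaks, each inspected manually.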
Molecule `Cc1ccc(CNC(=O)C2CCCN(c3nnc(C)c4c(C)n(-c5ccc(C)cc5)nc34)C2)cc1` (centres undefined) registered an RP-LC retention time of 800 s.

`Cc1sc(-c2cc(C(F)(F)F)[nH]n2)cc1S(=O)(=O)NC1CCCC1` gave an RP-LC retention time of 1000 s.

`COc1cccc(S(=O)(=O)N2CCC(c3noc(-c4cccc(F)c4)n3)CC2)c1` registered an RP-LC retention time of 1110 s.

In turn, `Cc1ccc(-c2cc3n(n2)CCCN(C(=O)CCN2C(=O)NC(C)(C)C2=O)C3)cc1C` registered an RP-LC retention time of 730 s.

`CCOc1ccc(NC(=O)C2CCN(S(=O)(=O)c3ccc4c(c3)sc(=O)n4CC)CC2)cc1` had an RP-LC retention time of 924 s.

Turning to `CCN(C(=O)c1ccccc1Cl)c1nc(-c2ccccc2)cs1`, the RP-LC retention time came out at 1310 s.

`O=C(NCc1ccc2c(c1)OCO2)c1nnc(-c2ccc(S(=O)(=O)N3CCOCC3)cc2)o1` had an RP-LC retention time of 804 s.

Molecule `CCc1cc(C(=O)N2CCCC2)nc2cc(-c3ccsc3)nn12` had an RP-LC retention time of 950 s.

Turning to `Cc1cc(N2CCN(c3ccccc3)CC2)nc2ccccc12`, the RP-LC retention time is 710 s.

Consider `CN1CCCCCCN(C(=O)c2cc(CN3CCOCC3)on2)[C@H]2CCC[C@H]2C1=O`, for which the RP-LC retention time amounted to 614 s.

Molecule `CCOC(=O)c1ccc2c(c1)NCc1cccc(OC)c1O2` displayed an RP-LC retention time of 1030 s.

Turning to `CNC(=O)c1cn2ccnc(-c3ccc(C)cc3)c2n1`, the RP-LC retention time was found to be 755 s.

In turn, `CN(C)C(=O)c1ccc2c(c1)nc(CN1CCN(C(=O)c3ccco3)CC1)n2C` came in with an RP-LC retention time of 575 s.

For `CCC(=O)NCc1nc2c(n1C)CN(S(=O)(=O)c1cccc(F)c1)CC2`, the RP-LC retention time is 558 s.

`CCn1nc(C)c(CCNC(=O)c2ccc(-c3ccc4c(c3)CCN4C(C)=O)cc2)c1C` registered an RP-LC retention time of 676 s.

As to `COCCCNC(=O)C1c2ccccc2C(=O)N1CCCc1ccccc1` (centres undefined), the RP-LC retention time amounted to 761 s.

In turn, `CCc1nc(OCC(=O)Nc2ccc(C)cc2Br)c2ccccc2n1` gave an RP-LC retention time of 895 s.

Regarding `COc1ccc2c(c1)C1(CCN(C(=O)COc3ccccc3)C1)C(=O)N2` (centres undefined), the RP-LC retention time worked out at 733 s.

`Cc1cccn2cc(-c3cccc(NS(=O)(=O)c4ccc(Br)cc4)c3)nc12` displayed an RP-LC retention time of 700 s.

The molecule `CC(=O)Nc1cc(C(=O)NCC(C)C)c2ccc(C)nc2c1` displayed an RP-LC retention time of 574 s.

Consider `O=C(NCCn1nnc2cc(C(=O)N3CCCCC3)ccc21)NC1CCCCC1`, for which the RP-LC retention time worked out at 707 s.

For the molecule `COc1cccc(-c2noc(CN3C(=O)COc4ccc(Cl)cc43)n2)c1OC`, the RP-LC retention time was determined as 1020 s.

With `CCCCOc1ccc(NC(=O)c2oc3ccc(C)cc3c2C)c2cccnc12`, the RP-LC retention time worked out at 923 s.

The molecule `CCOC(=O)c1cc(C2CC2)nc2c1c(=O)n(Cc1cccc(C)c1)c(=O)n2C` yielded an RP-LC retention time of 1230 s.

Molecule `CC(C)c1ccc(-c2noc(N3CCC(C(=O)NCCN4CCCC4)CC3)n2)cc1` yielded an RP-LC retention time of 730 s.

On to `COC(=O)N1CCN(CCNC(=O)C2(c3ccc(Cl)cc3)CCCC2)CC1`, for which the RP-LC retention time stood at 592 s.

Turning to `O=C(CC(c1ccccc1)c1ccccc1)N(Cc1ccsc1)Cc1ccccn1`, the RP-LC retention time was found to be 857 s.

In turn, `O=C(Cn1ncc2c(N3CCN(c4ccccn4)CC3)ncnc21)Nc1ccc(Br)cc1` showed an RP-LC retention time of 652 s.

Turning to `CN(C)S(=O)(=O)N1CCCC1Cc1noc(-c2cccnc2)n1` (centres undefined), the RP-LC retention time came to 746 s.

`O=C(Nc1ccc(F)c(Cl)c1)C1CCCN(c2ccnc(-c3ccc(F)cc3)n2)C1` (centres undefined) came in with an RP-LC retention time of 780 s.

In turn, `O=C(CCNc1cnc2cnccn12)NCc1ccccc1C(F)(F)F` showed an RP-LC retention time of 585 s.

As for `CCOc1ccc(C(=O)Nc2ccc(-c3cn4ccc(C)nc4n3)cc2)cc1OCC`, the RP-LC retention time was found to be 684 s.

As to `CCOC(=O)c1[nH]c(C)c(CN(Cc2ccco2)C(=O)c2ccc(N(C)C)cc2)c1C`, the RP-LC retention time is 894 s.

`CC(=O)Nc1cccc(C(C(F)(F)F)C(F)(F)F)c1` had an RP-LC retention time of 778 s.

For the molecule `CCOc1ccc(NC(=O)c2cn(-c3cc(N4CCCCC4C)ncn3)cn2)cc1` (centres undefined), the RP-LC retention time was found to be 1110 s.

Consider `CCN1C(=O)c2cccnc2Sc2cc(CNC(=O)c3ccccc3OC)ccc21`, for which the RP-LC retention time was found to be 772 s.

On to `COCC1CN(S(=O)(=O)c2ccc(C)c(F)c2)CC12CCNCC2` (centres undefined), for which the RP-LC retention time came to 643 s.

Take `Cc1ccc(-c2cc3c(N4CCCC(C(=O)NCc5ccc6c(c5)OCO6)C4)nccn3n2)c(C)c1` (centres undefined): the RP-LC retention time turned out to be 938 s.

Molecule `Cc1cc(C(=O)NCCc2ccco2)c2c(=O)n(C)c(=O)n(C)c2n1` registered an RP-LC retention time of 688 s.

`COc1cc(OC)cc(C(=O)N2CCCC2COc2ccc(C(=O)N3CCCC3)cc2)c1` (centres undefined) registered an RP-LC retention time of 807 s.

For the molecule `CCCCOc1ccc(NC(=O)c2cc(=O)c3ccc(C)cc3o2)c2cccnc12`, the RP-LC retention time was found to be 722 s.

Take `CC1=NS(=O)(=O)N(C)C=C1C(=O)OCc1nc(Cc2cccc(C)c2)no1`: the RP-LC retention time was determined as 957 s.

`Cc1ccnc(NC(=O)C2CCCN(S(=O)(=O)c3cc(-c4noc(C5CCC5)n4)cs3)C2)c1` (centres undefined) came in with an RP-LC retention time of 891 s.

Take `COc1ccccc1CNc1nccc(-n2nc(C)cc2C)n1`: the RP-LC retention time was 840 s.

As for `CC(C)CCNC(=O)Nc1ccc2c(c1)CCN2S(C)(=O)=O`, the RP-LC retention time came to 784 s.

`CCOC(=O)c1ccc(NC(=O)Cn2c(=O)n(CC)c(=O)c3c2cc(C)n3C)cc1` showed an RP-LC retention time of 771 s.

On to `Cc1nn(-c2ccccc2)c(C)c1S(=O)(=O)N1CCC(C(=O)Nc2ccccc2Cl)CC1`, for which the RP-LC retention time was 995 s.

As to `Cc1ccc(S(=O)(=O)NCc2ccccn2)c(C)c1C`, the RP-LC retention time turned out to be 626 s.

In the case of `Cc1ccc(Nc2cc(C)nc(N3CCN(C(=O)Nc4cccc(Cl)c4)CC3)n2)cc1`, the RP-LC retention time is 800 s.

`O=C(CCCS(=O)(=O)c1ccc(F)cc1)Nc1ncnc2sccc12` yielded an RP-LC retention time of 649 s.

Molecule `CCc1ccc(S(=O)(=O)c2cnc(N3CCN(c4ccccc4Cl)CC3)nc2N)cc1` yielded an RP-LC retention time of 1290 s.

Consider `CCC(=O)N1CCc2c([nH]c3ccccc23)C12C(=O)Nc1ccc(Br)cc12` (centres undefined), for which the RP-LC retention time amounted to 882 s.

The molecule `CCCCn1nc2ccc(S(=O)(=O)N3CCCCCC3)cn2c1=O` displayed an RP-LC retention time of 957 s.

`O=C(c1cc2ccccc2[nH]1)N1CCN(c2cc(-c3ccccc3)[nH]n2)CC1` displayed an RP-LC retention time of 792 s.

`Cc1ccc(F)cc1NS(=O)(=O)c1ccc2c(c1)C(=O)N(C)c1ncccc1O2` showed an RP-LC retention time of 924 s.

In turn, `O=C(C1CC(=O)N(c2n[nH]c3ccccc23)C1)N1CCC(c2nc3ccccc3[nH]2)CC1` (centres undefined) came in with an RP-LC retention time of 591 s.

For `Cc1ccc(CNC(=O)c2[nH]c(C)c(S(=O)(=O)N3CCCC3)c2C)cc1`, the RP-LC retention time is 851 s.

For the molecule `O=C(C1=CN(c2ccc3c(c2)OCCO3)c2ccccc2S1(=O)=O)N1CCOCC1`, the RP-LC retention time was determined as 730 s.

As for `O=C(NC1CC1)c1ccc2c(c1)CCN2C(=O)C1CC1`, the RP-LC retention time came out at 673 s.

On to `O=C(NC1CCN(C(=O)c2cc(-c3cccs3)[nH]n2)CC1)C1CCCCC1`, for which the RP-LC retention time was 722 s.

`CN(C)c1ccc(C(=O)NCCCCCCC(=O)NO)cc1`: the RP-LC retention time came out at 631 s.

On to `Cc1noc(C)c1S(=O)(=O)N1CCCCC1c1nncn1C` (centres undefined), for which the RP-LC retention time is 647 s.

Molecule `CN1CCC(C2CCN(S(=O)(=O)c3ccccc3Cl)C2)CC1` (centres undefined) displayed an RP-LC retention time of 710 s.

As for `COC(=O)C1=CCCCCC(N2CCOCC2)=C1C(=O)OC`, the RP-LC retention time was determined as 684 s.

Turning to `Cn1nc(-c2nc(-c3ccccc3)no2)c2c1CCN(C(=O)NC1CCCCC1)C2`, the RP-LC retention time is 914 s.

For `CN(C)c1ccc(C(=O)NC2CCN(c3cc(-c4ccc(F)cc4)[nH]n3)C2)cc1` (centres undefined), the RP-LC retention time is 733 s.

Molecule `Cc1noc(C)c1CNC(=O)c1ccc(F)cc1Cl` registered an RP-LC retention time of 731 s.

For the molecule `O=C(NCCS(=O)(=O)N1CCN(c2cccc(Cl)c2)CC1)c1cc2ccccc2o1`, the RP-LC retention time is 941 s.

In the case of `CC(=O)Nc1ccc(C2(C(=O)NCc3ccccc3F)CCC2)cc1`, the RP-LC retention time was 732 s.

`COc1ccc2c(ccn2CCNC(=O)C2CC(=O)N(c3n[nH]c4ccccc34)C2)c1` (centres undefined) yielded an RP-LC retention time of 722 s.

`Cn1c(C(=O)N2CCN(c3ccccn3)CC2)cc2sccc21` came in with an RP-LC retention time of 598 s.

With `O=C(NCCC1=CCCCC1)c1cnc(-c2ccccc2)nc1-c1ccncc1`, the RP-LC retention time stood at 966 s.

The molecule `Cc1c(C2CCN(C(=O)NCc3ccc(F)cc3)CC2)noc1N` showed an RP-LC retention time of 683 s.

The molecule `COc1cccc(CNC(=O)c2nnc(-c3ccc(S(=O)(=O)N4CCOCC4)cc3)o2)c1` displayed an RP-LC retention time of 822 s.

Molecule `O=C(Nc1nccs1)c1cc(N2C(=O)C3C4CCC(C4)C3C2=O)ccc1Cl` (centres undefined) had an RP-LC retention time of 742 s.

Molecule `CC(=O)c1ccc2c(c1)[C@@H]1C=CC[C@@H]1[C@H](c1cc3c(cc1Br)OCO3)N2` had an RP-LC retention time of 1140 s.

With `Cc1cccc(-c2noc(C3CCCN3C(=O)Nc3ccccc3C)n2)c1` (centres undefined), the RP-LC retention time was found to be 1010 s.

The molecule `CCC(CN(C)Cc1ccccc1)NC(=O)CSc1nc2ccccc2n(C)c1=O` (centres undefined) came in with an RP-LC retention time of 653 s.

`CCn1cnc(S(=O)(=O)N2CCCC(C(=O)Nc3cccc(CN4CCCC4)c3)C2)c1` (centres undefined) returned an RP-LC retention time of 607 s.
